Laboratory results: the supplement of paper PMC10307832

Experiments:
Experiment in all cases: relative viability (nuclei count vs DMSO), 5 days (fraction); higher = more cells survive
17-AAG + Crizotinib = compound: C=CCNC1=C2C[C@@H](C)C[C@H](OC)[C@H](O)[C@@H](C)/C=C(\C)[C@H](OC(N)=O)[C@@H](OC)/C=C\C=C(/C)C(=O)NC(=CC1=O)C2=O [17-AAG] + C[C@@H](Oc1cc(-c2cnn(C3CCNCC3)c2)cnc1N)c1c(Cl)ccc(F)c1Cl [Crizotinib] (partner 1 µM)
Method in brief: (§1)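 Values are medians from duplicate plates. Each reflects relative viability, defined as the nuclei count of treated wells over that of vehicle wells. Lung cancer cell lines in 1536-well plates were pin-tool dosed one day after seeding with one drug alone or with a fixed anchor-drug dose plus five library-drug doses (not always all listed) in √10 steps, then fixed, stained and imaged at 4× after 5 days.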

17-AAG + Phenformin = compound: C=CCNC1=C2C[C@@H](C)C[C@H](OC)[C@H](O)[C@@H](C)/C=C(\C)[C@H](OC(N)=O)[C@@H](OC)/C=C\C=C(/C)C(=O)NC(=CC1=O)C2=O [17-AAG] + N=C(N)NC(=N)NCCc1ccccc1 [Phenformin] (partner 250 µM)
Method in brief: as §1

17-AAG + Navitoclax = compound: C=CCNC1=C2C[C@@H](C)C[C@H](OC)[C@H](O)[C@@H](C)/C=C(\C)[C@H](OC(N)=O)[C@@H](OC)/C=C\C=C(/C)C(=O)NC(=CC1=O)C2=O [17-AAG] + CC1(C)CCC(c2ccc(Cl)cc2)=C(CN2CCN(c3ccc(C(=O)NS(=O)(=O)c4ccc(N[C@H](CCN5CCOCC5)CSc5ccccc5)c(S(=O)(=O)C(F)(F)F)c4)cc3)CC2)C1 [Navitoclax] (partner 0.5 µM)
Method in brief: as §1

17-AAG + Decitabine = compound: C=CCNC1=C2C[C@@H](C)C[C@H](OC)[C@H](O)[C@@H](C)/C=C(\C)[C@H](OC(N)=O)[C@@H](OC)/C=C\C=C(/C)C(=O)NC(=CC1=O)C2=O [17-AAG] + Nc1ncn([C@H]2C[C@H](O)[C@@H](CO)O2)c(=O)n1 [Decitabine] (partner 2 µM)
Method in brief: as §1

Cell Line	relative viability (17-AAG + Crizotinib; first compound 0.00128 µM)	relative viability (17-AAG + Crizotinib; first compound 0.004048 µM)	relative viability (17-AAG + Crizotinib; first compound 0.0128 µM)	relative viability (17-AAG + Crizotinib; first compound 0.04048 µM)	relative viability (17-AAG + Crizotinib; first compound 0.128 µM)	relative viability (17-AAG + Phenformin; first compound 0.00128 µM)	relative viability (17-AAG + Phenformin; first compound 0.004048 µM)	relative viability (17-AAG + Phenformin; first compound 0.0128 µM)	relative viability (17-AAG + Phenformin; first compound 0.04048 µM)	relative viability (17-AAG + Phenformin; first compound 0.128 µM)	relative viability (17-AAG + Navitoclax; first compound 0.00128 µM)	relative viability (17-AAG + Navitoclax; first compound 0.004048 µM)	relative viability (17-AAG + Navitoclax; first compound 0.0128 µM)	relative viability (17-AAG + Navitoclax; first compound 0.04048 µM)	relative viability (17-AAG + Navitoclax; first compound 0.128 µM)	relative viability (17-AAG + Decitabine; first compound 0.00128 µM)	relative viability (17-AAG + Decitabine; first compound 0.004048 µM)	relative viability (17-AAG + Decitabine; first compound 0.0128 µM)	relative viability (17-AAG + Decitabine; first compound 0.04048 µM)	relative viability (17-AAG + Decitabine; first compound 0.128 µM)
201T	1.04	1.07	1.02	0.886	0.805	0.484	0.391	0.341	0.244	0.248	1.21	1.21	1.17	1.16	0.973	0.842	0.838	0.811	0.804	0.71
A549	0.666	0.372	0.0579	0.0609	0.0363	0.154	0.0295	0.0354	0.0477	0.03	1.13	0.542	0.0729	0.0453	0.044	0.123	0.271	0.128	0.0399	0.0274
A-427	1.03	0.872	0.899	0.881	0.798	0.353	0.347	0.374	0.271	0.167	0.95	0.946	0.891	0.991	0.986	0.55	0.528	0.561	0.395	0.306
ABC-1	1.19	1.08	1.04	1.3	0.898	0.212	0.261	0.255	0.246	0.261	–	–	–	–	–	1.08	1.16	1.24	1.2	0.666
BEN	0.896	0.821	0.929	0.739	0.237	0.268	0.26	0.222	0.197	0.167	0.069	0.0609	0.0634	0.052	0.0666	0.613	0.712	0.759	0.446	0.288
CAL-12T	0.676	0.775	0.646	0.778	0.255	0.56	0.498	0.563	0.447	0.15	1.25	1.17	1.21	0.799	0.296	–	–	–	–	–
COR-L23	0.725	0.614	0.749	0.339	0.0896	0.459	0.438	0.419	0.269	0.103	1.07	1.06	0.991	0.544	0.0992	0.328	0.52	0.432	0.351	0.138
COR-L 105	0.961	0.9	0.793	0.568	0.661	0.55	0.453	0.463	0.354	0.299	0.936	0.756	0.721	0.604	0.486	0.655	0.701	0.699	0.484	0.504
Calu-6	0.842	0.77	0.775	0.202	0.109	–	–	–	–	–	0.783	0.735	0.703	0.197	0.122	–	–	–	–	–
ChaGo-K-1	1.11	1.07	1.03	0.628	0.293	0.444	0.587	0.422	0.273	0.163	0.949	1.11	0.897	0.441	0.273	0.444	0.55	0.491	0.514	0.428
EBC-1	0.237	0.207	0.163	0.148	0.135	–	–	–	–	–	0.514	0.203	0.157	0.182	0.126	–	–	–	–	–
EKVX	1.07	0.902	0.951	0.529	0.114	0.26	0.222	0.139	0.195	0.0638	0.997	0.937	0.934	0.242	0.165	0.351	0.284	0.257	0.162	0.139
EMC-BAC-2	0.712	0.753	0.756	0.902	0.281	0.576	0.535	0.427	0.261	0.189	1.23	1.07	1.18	1.11	0.443	0.98	0.939	0.692	0.31	0.219
EPLC-272H	0.956	0.872	1.01	0.672	0.338	0.32	0.327	0.202	0.095	0.0918	1.11	1.21	1.02	1.06	0.225	0.367	0.352	0.307	0.158	0.0907
H3255	0.926	0.833	0.646	0.196	0.161	0.365	0.368	0.331	0.234	0.189	0.489	0.66	0.547	0.0858	0.107	0.788	0.566	0.488	0.231	0.198
HARA	1.05	1.05	1.06	1.12	0.725	0.443	0.456	0.367	0.418	0.113	1.16	1.21	1.15	1.12	1.14	0.517	0.57	0.617	0.569	0.232
HCC-15	0.767	0.758	0.456	0.4	0.132	0.433	0.33	0.146	0.124	0.107	0.767	0.57	0.434	0.469	0.144	0.599	0.557	0.174	0.136	0.137

Cell Line	relative viability (17-AAG + Crizotinib; first compound 0.00128 µM)	relative viability (17-AAG + Crizotinib; first compound 0.004048 µM)	relative viability (17-AAG + Crizotinib; first compound 0.0128 µM)	relative viability (17-AAG + Crizotinib; first compound 0.04048 µM)	relative viability (17-AAG + Crizotinib; first compound 0.128 µM)	relative viability (17-AAG + Phenformin; first compound 0.00128 µM)	relative viability (17-AAG + Phenformin; first compound 0.004048 µM)	relative viability (17-AAG + Phenformin; first compound 0.0128 µM)	relative viability (17-AAG + Phenformin; first compound 0.04048 µM)	relative viability (17-AAG + Phenformin; first compound 0.128 µM)	relative viability (17-AAG + Navitoclax; first compound 0.00128 µM)	relative viability (17-AAG + Navitoclax; first compound 0.004048 µM)	relative viability (17-AAG + Navitoclax; first compound 0.0128 µM)	relative viability (17-AAG + Navitoclax; first compound 0.04048 µM)	relative viability (17-AAG + Navitoclax; first compound 0.128 µM)	relative viability (17-AAG + Decitabine; first compound 0.00128 µM)	relative viability (17-AAG + Decitabine; first compound 0.004048 µM)	relative viability (17-AAG + Decitabine; first compound 0.0128 µM)	relative viability (17-AAG + Decitabine; first compound 0.04048 µM)	relative viability (17-AAG + Decitabine; first compound 0.128 µM)
HCC-44	0.823	0.746	0.766	0.204	0.122	0.22	0.285	0.158	0.0925	0.0873	1	0.929	0.897	0.481	0.207	0.927	0.964	0.931	0.958	0.355
HCC-78	0.378	–	0.351	0.273	0.235	0.644	0.818	0.676	0.553	0.351	0.753	–	0.938	0.942	0.286	0.511	0.841	0.695	0.465	0.369
IA-LM	0.807	0.663	0.758	0.291	0.0644	–	–	–	–	–	0.901	0.784	0.757	0.237	0.0731	–	–	–	–	–
LCLC-103H	1.12	0.979	0.976	0.928	1.06	0.351	0.345	0.3	0.346	0.325	–	–	–	–	–	0.757	0.715	0.731	0.812	0.797
NCI-H358	0.752	0.268	0.152	0.118	0.0862	0.321	0.155	0.0612	0.0774	0.0534	–	–	–	–	–	0.198	0.141	0.0682	0.0758	0.062
NCI-H522	–	–	–	–	–	0.627	0.599	0.635	0.294	0.471	–	–	–	–	–	0.668	0.769	0.686	0.584	0.431
NCI-H650	0.759	0.685	0.6	0.476	0.134	0.445	0.459	0.421	0.308	0.228	–	–	–	–	–	0.315	0.339	0.384	0.302	0.196
NCI-H661	1.13	1.02	0.947	0.841	0.532	0.304	0.293	0.293	0.256	0.188	–	–	–	–	–	0.496	0.552	0.473	0.341	0.257
NCI-H1299	0.975	0.932	0.897	0.814	0.237	–	–	–	–	–	1.04	1.01	1.07	0.952	0.755	–	–	–	–	–
NCI-H1395	–	–	–	–	–	0.449	0.425	0.4	0.358	0.324	1.03	1.29	0.698	0.458	0.344	0.611	0.694	0.568	0.387	0.383
NCI-H1563	0.903	0.836	0.562	0.462	0.473	0.657	0.594	0.52	0.464	0.473	–	–	–	–	–	–	–	–	–	–
NCI-H1648	–	–	–	–	–	–	–	–	–	–	–	–	–	–	–	–	0.522	0.547	0.38	0.324
NCI-H1703	0.611	0.634	0.129	0.151	0.119	–	–	–	–	–	0.961	0.22	0.16	0.162	0.125	–	–	–	–	–
NCI-H1793	–	–	–	–	–	0.349	0.391	0.229	0.146	0.0817	0.346	0.323	0.228	0.192	0.151	0.429	0.382	0.225	0.21	0.159
NCI-H2228	0.528	0.245	0.176	0.174	0.141	0.337	0.185	0.0958	0.099	0.0688	0.893	0.486	0.146	0.168	0.112	–	–	–	–	–
NCI-H2342	–	–	–	–	–	0.562	0.792	0.554	0.398	0.379	–	–	–	–	–	0.735	0.686	0.739	0.77	0.619
SW 900	–	–	–	–	–	0.577	0.37	0.13	0.0856	0.0981	–	–	–	–	–	0.45	0.368	0.332	0.257	0.181
